Columns and labels:
Format in all cases: biochemical
[1] = biological target: CDK7 (Homo sapiens, UniProt P50613); assay: experiment of inhibiting kinase activity (Caliper mobility shift assay), CDK7; conditions: read-out: inhibition rate CDK7; for inhibition at 0.1 µM: at 100 nM; for inhibition at 0.01 µM: at 10 nM
Description: (§1) The inhibition rates of tested compounds on JAK1, JAK2, JAK3, TYK2, CDK7, CDK9, EGFR (T790M) and LRRK2 kinases were measured. The test concentrations of the compounds were 10 nM and 100 nM, and the detection was performed by replicate wells. Alternatively, compounds were 3-fold serial diluted from 10 µM for 10 concentrations in replicate wells.
(§2) The inhibitory effects of the compounds on JAK1, JAK2, JAK3, CDK7 and CDK9 kinases were detected by the method of Caliper mobility shift assay. 250 nL of the compound at 100-fold final concentration was transferred to a destination plate 384-well-plate by using a liquid handler Echo 550. A kinase solution at 2.5-fold final concentration was prepared with 1×kinase buffer. 10 µL of the kinase solution with 2.5-fold final concentration was added to compound wells and positive control wells; and 10 µL of 1×kinase buffer was added to negative control wells. The mixture was centrifuged at 1000 rpm for 30 seconds and then incubated at room temperature for 10 minutes. A mixed solution of ATP and kinase substrate at 5/3-fold final concentration was prepared with 1×kinase buffer, and 15 µL of the mixed solution of ATP and substrate at 5/3-fold final concentration was added to start the reaction. The 384-well plate was centrifuged at 1000 rpm for 30 seconds, shaked and mixed evenly, then incubated at room temperature for a corresponding time. 30 µL of stop solution was added to stop the kinase reaction, the mixture was centrifuged at 1000 rpm for 30 seconds, and shaked and mixed evenly. The conversion rate was read by Caliper EZ Reader. The conversion inhibition rate%=(average positive control conversion rate%-sample conversion rate%)/(average positive control conversion rate%-average negative control conversion rate%). Where negative control wells represent the conversion readings of the background well of kinase buffer; and positive control wells represent the conversion readings of wells without compound inhibition. With the log value of concentration as the x axis and the percentage inhibition rate as the y axis, the dose-response curve was fitted by the log (inhibitor) vs. response-variable slope of the analyzing softwar GraphPad Prism 5, and the IC50 values of each compound on enzyme activity were obtained. Calculation formula is as follows: y=Bottom+(Top-Bottom)/(1+10^((LogIC50-x)×hillslope)), where x is logarithm of inhibitor concentration; and Y is % inhibition rate.

[2] = biological target: CDK9 (Homo sapiens, UniProt P50750); assay: experiment of inhibiting kinase activity (Caliper mobility shift assay), CDK9; conditions: read-out: inhibition rate CDK9; for inhibition at 0.1 µM: at 100 nM
Description: as §1, §2

[3] = biological target: T1, LRRK2 (Homo sapiens, UniProt Q5S007); assay: experiment of inhibiting kinase activity, LRRK2; conditions: for inhibition at 0.01 µM: at 10 nM; for inhibition at 0.01 µM / inhibition at 0.1 µM: read-out: inhibition rate LRRK2; for inhibition at 0.1 µM: at 100 nM; for IC50: kinase activity assay, Table 3
Description: as §1

[4] = biological target: TYK2 (Homo sapiens, UniProt P29597); assay: experiment of inhibiting kinase activity, TYK2; conditions: read-out: inhibition rate TYK2; for inhibition at 0.01 µM: at 10 nM; for inhibition at 0.1 µM: at 100 nM
Description: as §1

[5] = biological target: JAK2 (Homo sapiens, UniProt O60674); assay: experiment of inhibiting kinase activity (Caliper mobility shift assay), JAK2; conditions: read-out: inhibition rate JAK2; for inhibition at 0.01 µM: at 10 nM; for inhibition at 0.1 µM: at 100 nM
How it was run: (§3)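 Steps: compound and kinase in 1× kinase buffer, 10 min at room temperature; ATP plus substrate added to start; reaction run at room temperature, then stopped. Conversion read by Caliper; IC50 from four-parameter variable-slope fit of % inhibition against log concentration.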

[6] = biological target: T2, JAK3 (Homo sapiens, UniProt P52333); assay: experiment of inhibiting kinase activity (Caliper mobility shift assay), JAK3; conditions: read-out: inhibition rate JAK3; for inhibition at 0.01 µM: at 10 nM; for inhibition at 0.1 µM: at 100 nM
T2 sequence (P52333 1-1124): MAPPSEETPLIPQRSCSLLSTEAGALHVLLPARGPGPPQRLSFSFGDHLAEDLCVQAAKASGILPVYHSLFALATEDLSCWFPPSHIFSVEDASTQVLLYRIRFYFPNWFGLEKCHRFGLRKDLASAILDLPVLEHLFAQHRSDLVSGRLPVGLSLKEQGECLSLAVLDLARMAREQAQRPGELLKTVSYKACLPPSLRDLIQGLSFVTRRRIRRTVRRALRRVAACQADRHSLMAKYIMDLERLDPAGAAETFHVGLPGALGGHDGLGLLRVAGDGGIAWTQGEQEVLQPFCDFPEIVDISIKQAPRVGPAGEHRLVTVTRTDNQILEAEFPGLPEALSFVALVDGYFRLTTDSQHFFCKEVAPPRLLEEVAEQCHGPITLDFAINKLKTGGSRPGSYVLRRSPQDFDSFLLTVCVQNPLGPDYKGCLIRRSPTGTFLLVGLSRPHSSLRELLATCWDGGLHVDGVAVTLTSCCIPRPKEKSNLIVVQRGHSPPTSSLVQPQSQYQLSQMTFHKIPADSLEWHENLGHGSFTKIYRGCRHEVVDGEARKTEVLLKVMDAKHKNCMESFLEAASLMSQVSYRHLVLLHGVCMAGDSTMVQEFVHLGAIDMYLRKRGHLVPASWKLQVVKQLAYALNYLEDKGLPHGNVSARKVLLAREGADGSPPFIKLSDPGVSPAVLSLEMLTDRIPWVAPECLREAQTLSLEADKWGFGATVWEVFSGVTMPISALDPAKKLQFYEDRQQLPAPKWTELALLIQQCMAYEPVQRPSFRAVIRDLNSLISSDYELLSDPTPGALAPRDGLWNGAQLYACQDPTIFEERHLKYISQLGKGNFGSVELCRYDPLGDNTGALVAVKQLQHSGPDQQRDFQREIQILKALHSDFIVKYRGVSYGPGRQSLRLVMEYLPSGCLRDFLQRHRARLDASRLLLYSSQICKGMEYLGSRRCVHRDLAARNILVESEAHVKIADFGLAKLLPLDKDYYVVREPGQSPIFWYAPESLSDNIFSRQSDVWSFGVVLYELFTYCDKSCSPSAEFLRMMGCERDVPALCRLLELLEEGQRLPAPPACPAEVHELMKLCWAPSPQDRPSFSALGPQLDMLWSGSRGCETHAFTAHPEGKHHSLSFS
How it was run: as §3

[7] = biological target: T1, LRRK2; assay: experiment of inhibiting LRRK2 kinase activity (ADP-Glo method); conditions: Table 4
Description: The inhibitory effect of the compounds on the activity of LRRK2 kinase was detected by ADP-Glo method. The diluted solutions of the compounds were transfered to a 384-well plate (784075, Greiner), the plate was sealed and centrifuged at a speed of 1000 g for 1 minute. A kinase solution at 2-fold final concentration was prepared with 1×kinase buffer, 2.5 µl of the kinase solution with 2-fold final concentration was added to the wells, the plate was centrifuged at 1000 g for 30 seconds, and left at room temperature for 10 minutes. A mixed solution of ATP and kinase substrate at 2-fold final concentration was prepared with 1×kinase buffer, and 2.5 µL of mixed solution of ATP and substrate at 2-fold final concentration was added to start the reaction. The plate was centrifuged at 1000 g for 30 seconds, sealed and left at room temperature for 2 hours. 4 µL of ADP-Glo reagent was added and incubated at room temperature for 40 minutes; 8 µL kinase detection reagent was added and incubated at room temperature for another 40 minutes. The luminescence signal value was detected on Envision 2104 microplate reader. The conversion inhibition rate%=100-(compound signal value-positive control signal value)/(blank control signal value-positive control signal value)×100.
The IC50 was calculated with GraphPad 6.0 and the dose-responsive curve of the compounds was plotted as follows: y=Bottom+(Top-Bottom)/(1+10^((logic50-x)×hillslope)), where x was logarithm of inhibitor concentration; and y was % inhibition rate.

[8] = biological target: JAK1 (Homo sapiens, UniProt P23458); assay: experiment of inhibiting kinase activity (Caliper mobility shift assay), JAK1; conditions: read-out: inhibition rate JAK1; for inhibition at 0.1 µM: at 100 nM
How it was run: as §3

TYK2, sequence (P29597 whole entry): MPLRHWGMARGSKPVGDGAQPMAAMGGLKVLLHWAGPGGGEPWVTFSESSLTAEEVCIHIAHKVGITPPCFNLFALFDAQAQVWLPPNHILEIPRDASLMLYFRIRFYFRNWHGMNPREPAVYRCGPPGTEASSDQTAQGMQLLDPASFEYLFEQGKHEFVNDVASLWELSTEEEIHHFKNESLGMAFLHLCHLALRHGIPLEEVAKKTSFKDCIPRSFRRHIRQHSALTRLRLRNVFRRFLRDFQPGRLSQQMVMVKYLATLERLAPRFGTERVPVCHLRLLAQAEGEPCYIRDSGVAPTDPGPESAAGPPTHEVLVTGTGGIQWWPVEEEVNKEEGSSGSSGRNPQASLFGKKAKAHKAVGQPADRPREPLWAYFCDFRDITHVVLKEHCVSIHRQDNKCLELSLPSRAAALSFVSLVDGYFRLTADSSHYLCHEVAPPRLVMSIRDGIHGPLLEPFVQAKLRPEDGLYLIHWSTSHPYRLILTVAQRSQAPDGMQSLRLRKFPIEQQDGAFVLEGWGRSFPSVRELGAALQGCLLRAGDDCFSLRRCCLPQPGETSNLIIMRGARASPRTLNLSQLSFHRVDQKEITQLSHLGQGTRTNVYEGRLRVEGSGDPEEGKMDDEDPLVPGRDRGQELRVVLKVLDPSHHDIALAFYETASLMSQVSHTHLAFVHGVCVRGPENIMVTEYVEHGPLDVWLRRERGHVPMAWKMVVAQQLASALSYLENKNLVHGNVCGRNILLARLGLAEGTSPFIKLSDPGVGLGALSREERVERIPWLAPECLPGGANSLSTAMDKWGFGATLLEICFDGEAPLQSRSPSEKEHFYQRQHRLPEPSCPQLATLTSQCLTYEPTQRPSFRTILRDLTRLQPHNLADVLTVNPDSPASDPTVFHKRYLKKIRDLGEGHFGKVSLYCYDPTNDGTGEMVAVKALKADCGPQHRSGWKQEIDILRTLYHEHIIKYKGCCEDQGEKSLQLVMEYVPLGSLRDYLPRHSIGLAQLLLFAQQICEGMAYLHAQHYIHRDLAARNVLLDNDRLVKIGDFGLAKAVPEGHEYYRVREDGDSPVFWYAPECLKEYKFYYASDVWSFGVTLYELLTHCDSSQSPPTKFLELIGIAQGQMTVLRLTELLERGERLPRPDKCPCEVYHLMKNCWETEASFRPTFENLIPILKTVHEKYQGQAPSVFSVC
JAK1, sequence (P23458 whole entry): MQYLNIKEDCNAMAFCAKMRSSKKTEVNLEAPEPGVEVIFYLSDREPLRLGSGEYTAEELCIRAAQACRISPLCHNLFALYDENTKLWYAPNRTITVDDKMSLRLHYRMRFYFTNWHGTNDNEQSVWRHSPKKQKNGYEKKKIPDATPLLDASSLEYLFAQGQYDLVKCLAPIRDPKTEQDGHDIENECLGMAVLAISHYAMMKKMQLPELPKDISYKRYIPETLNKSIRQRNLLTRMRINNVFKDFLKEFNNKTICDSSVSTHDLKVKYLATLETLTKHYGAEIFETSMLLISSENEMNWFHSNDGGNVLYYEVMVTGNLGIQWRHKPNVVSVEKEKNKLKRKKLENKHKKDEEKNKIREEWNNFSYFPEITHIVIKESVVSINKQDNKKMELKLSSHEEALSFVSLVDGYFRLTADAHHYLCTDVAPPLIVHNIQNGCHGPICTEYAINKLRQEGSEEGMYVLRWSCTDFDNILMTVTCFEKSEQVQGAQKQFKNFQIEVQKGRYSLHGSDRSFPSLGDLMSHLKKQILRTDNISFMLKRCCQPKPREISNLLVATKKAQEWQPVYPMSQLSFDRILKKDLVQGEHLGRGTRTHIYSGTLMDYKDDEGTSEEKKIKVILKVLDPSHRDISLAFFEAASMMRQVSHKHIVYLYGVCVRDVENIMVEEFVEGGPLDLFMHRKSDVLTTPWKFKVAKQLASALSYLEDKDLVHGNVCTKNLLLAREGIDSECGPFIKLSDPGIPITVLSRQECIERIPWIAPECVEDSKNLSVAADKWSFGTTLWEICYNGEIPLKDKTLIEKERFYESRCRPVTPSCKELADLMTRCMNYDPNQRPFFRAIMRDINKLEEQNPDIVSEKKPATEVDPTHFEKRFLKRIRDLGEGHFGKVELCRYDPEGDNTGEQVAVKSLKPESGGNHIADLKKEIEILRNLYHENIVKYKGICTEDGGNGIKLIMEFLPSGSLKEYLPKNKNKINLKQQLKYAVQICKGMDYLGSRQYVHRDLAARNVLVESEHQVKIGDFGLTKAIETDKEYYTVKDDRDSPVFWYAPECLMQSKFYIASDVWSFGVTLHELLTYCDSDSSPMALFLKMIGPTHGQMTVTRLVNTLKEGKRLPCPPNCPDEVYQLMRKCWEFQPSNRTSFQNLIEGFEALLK
CDK9, sequence (P50750 whole entry): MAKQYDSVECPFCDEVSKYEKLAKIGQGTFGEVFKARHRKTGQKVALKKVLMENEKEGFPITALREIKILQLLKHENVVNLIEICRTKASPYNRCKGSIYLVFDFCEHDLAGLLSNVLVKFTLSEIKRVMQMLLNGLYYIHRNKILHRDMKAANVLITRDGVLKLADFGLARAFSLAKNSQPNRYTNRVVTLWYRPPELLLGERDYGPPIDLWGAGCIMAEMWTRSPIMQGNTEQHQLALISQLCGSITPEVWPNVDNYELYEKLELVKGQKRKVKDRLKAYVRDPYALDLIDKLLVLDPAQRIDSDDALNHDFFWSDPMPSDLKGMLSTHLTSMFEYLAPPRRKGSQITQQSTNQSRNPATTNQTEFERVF
CDK9, sequence (O60563 whole entry partner): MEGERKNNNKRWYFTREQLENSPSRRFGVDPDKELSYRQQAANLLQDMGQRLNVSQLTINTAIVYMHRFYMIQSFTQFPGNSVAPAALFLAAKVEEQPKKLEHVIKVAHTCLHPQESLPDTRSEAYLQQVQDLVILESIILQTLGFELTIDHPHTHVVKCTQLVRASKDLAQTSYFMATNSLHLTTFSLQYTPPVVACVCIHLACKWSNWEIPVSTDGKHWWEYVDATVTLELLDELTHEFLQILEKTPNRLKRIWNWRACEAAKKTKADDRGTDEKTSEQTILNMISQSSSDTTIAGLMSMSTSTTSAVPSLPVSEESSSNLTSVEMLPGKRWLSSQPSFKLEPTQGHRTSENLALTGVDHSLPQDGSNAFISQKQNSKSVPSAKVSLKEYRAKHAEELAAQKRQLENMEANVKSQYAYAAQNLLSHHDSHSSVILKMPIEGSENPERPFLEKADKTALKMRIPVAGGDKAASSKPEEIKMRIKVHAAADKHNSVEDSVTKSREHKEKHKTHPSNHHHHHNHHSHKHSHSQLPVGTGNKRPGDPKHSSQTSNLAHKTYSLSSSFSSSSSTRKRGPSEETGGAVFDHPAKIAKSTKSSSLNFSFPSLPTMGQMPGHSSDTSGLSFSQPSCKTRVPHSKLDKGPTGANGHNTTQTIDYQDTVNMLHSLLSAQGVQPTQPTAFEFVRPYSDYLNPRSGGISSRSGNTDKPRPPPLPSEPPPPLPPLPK
CDK7, sequence (P50613 whole entry, species assumed): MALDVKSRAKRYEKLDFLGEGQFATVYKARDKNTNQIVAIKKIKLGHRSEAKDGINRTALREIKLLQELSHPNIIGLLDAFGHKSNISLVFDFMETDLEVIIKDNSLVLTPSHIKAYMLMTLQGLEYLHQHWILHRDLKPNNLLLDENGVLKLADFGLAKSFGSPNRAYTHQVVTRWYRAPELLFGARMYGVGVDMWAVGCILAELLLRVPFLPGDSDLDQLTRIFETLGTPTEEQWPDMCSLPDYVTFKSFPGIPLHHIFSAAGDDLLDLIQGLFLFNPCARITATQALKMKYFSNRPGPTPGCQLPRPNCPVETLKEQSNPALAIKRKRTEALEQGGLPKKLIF
CDK7, sequence (P51946 whole entry partner, species assumed): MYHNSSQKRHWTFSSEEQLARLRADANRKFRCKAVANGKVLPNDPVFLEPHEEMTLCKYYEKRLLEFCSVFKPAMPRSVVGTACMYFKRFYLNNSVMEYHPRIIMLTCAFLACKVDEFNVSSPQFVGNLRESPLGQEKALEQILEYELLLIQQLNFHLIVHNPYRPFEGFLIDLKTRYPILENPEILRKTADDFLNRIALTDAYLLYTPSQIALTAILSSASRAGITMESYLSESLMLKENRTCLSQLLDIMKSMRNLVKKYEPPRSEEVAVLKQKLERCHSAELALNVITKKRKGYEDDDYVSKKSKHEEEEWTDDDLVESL
CDK7, sequence (P51948 whole entry partner, species assumed): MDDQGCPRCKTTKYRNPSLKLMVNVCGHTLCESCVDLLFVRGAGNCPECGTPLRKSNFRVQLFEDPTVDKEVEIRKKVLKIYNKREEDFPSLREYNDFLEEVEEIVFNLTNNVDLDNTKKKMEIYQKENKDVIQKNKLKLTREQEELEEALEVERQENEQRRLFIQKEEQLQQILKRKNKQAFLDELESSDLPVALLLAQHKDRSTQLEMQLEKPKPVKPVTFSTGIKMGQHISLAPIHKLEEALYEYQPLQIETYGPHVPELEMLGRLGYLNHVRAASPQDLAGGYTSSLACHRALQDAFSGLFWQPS

| Compound | inhibition at 0.1 µM [1] | inhibition at 0.1 µM [2] | inhibition at 0.01 µM [3] | inhibition at 0.1 µM [3] | IC50 [3] | inhibition at 0.01 µM [4] | inhibition at 0.1 µM [4] | inhibition at 0.01 µM [5] | inhibition at 0.1 µM [5] | inhibition at 0.01 µM [6] | inhibition at 0.1 µM [6] | IC50 [7] | inhibition at 0.01 µM [1] | inhibition at 0.1 µM [8] | inhibition at 0.01 µM ([8]; at 10 nM) | inhibition at 0.01 µM ([2]; at 10 nM) |
| --- | --- | --- | --- | --- | --- | --- | --- | --- | --- | --- | --- | --- | --- | --- | --- | --- |
| CN1CCOCCOc2cc(Nc3nc(Nc4ccccc4P(C)(C)=O)c4cc[nH]c4n3)ccc2OCC1 [Example 32, dimethyl(2-((2-((7-methyl-2,3,6,7,8,9-hexahydro-5H-benzo[b][1,4,7]trioxa[10]azacyclododecan-13-yl)amino)-7H-pyrrolo[2,3-d]pyrimidin-4-yl)amino)phenyl)phosphine oxide] | 40 to 79% | 25 to 39% | > 80% | > 80% | < 50 nM | 25 to 39% | 40 to 79% | 40 to 79% | > 80% | > 80% | > 80% |  |  |  |  |  |
| CN1CCOCCOc2ccc(Nc3nc(O[C@H]4CC[C@@](C)(O)CC4)c4ccccc4n3)cc2OCC1 [Example 109, (1s,4s)-1-methyl-4-((2-((7-methyl-2,3,6,7,8,9-hexahydro-5H-benzo[b][1,4,7]trioxa[1 0]azacyclododecan-12-yl)amino)quinazolin-4-yl)oxy)cyclohexan-1-ol] |  |  |  |  |  |  |  |  |  |  |  | 100 to 500 nM |  |  |  |  |
| CN1CCOCCOc2ccc(Nc3ncc(Cl)c(O[C@H]4CC[C@@](C)(O)CC4)n3)cc2OCC1 [Example 104, (1s,4s)-4-((5-chloro-2-((7-methyl-2,3,6,7,8,9-hexahydro-5H-benzo[b][1,4,7]trioxa[10]azacyclododecan-12-yl)amino)pyrimidin-4-yl)oxy)-1-methylcyclohexan-1-ol] |  |  |  |  |  |  |  |  |  |  |  | < 100 nM |  |  |  |  |
| CC(C)S(=O)(=O)c1ccccc1Nc1nc(Nc2ccc3c(c2)OCCOCCN(C)CCO3)nc2[nH]ccc12 [Example 10, N^4-(2-(isopropylsulfonyl)phenyl)-N^2-(7-methyl-2,3,6,7,8,9-hexahydro-5H-benzo[b][1,4, 7]trioxa[10]azacyclododecan-13-yl)-7H-pyrrolo[2,3-d]pyrimidin-2,4-diamine] | > 80% | 40 to 79% | > 80% | > 80% | < 50 nM |  | > 80% | > 80% | > 80% | 40 to 79% | > 80% |  | 40 to 79% | 25 to 39% |  |  |
| CC(C)S(=O)(=O)c1ccccc1Nc1nc(Nc2ccc3c(c2)OCCOCCN(S(C)(=O)=O)CCO3)nc2[nH]ccc12 [Example 99, N^4-(2-(isopropylsulfonyl)phenyl)-N^2-(7-(methylsulfonyl)-2,3,6,7,8,9-hexahydro-5H-benzo[b][1,4,7]trioxa[10]azacyclododecan-13-yl)-7H-pyrrolo[2,3-d]pyrimidin-2,4-diamine] | > 80% | 25 to 39% |  | > 80% |  | 25 to 39% | > 80% | 40 to 79% | > 80% | 40 to 79% | > 80% |  | 40 to 79% | 40 to 79% | 25 to 39% |  |
| CN1CCOCCOc2cc(Nc3ncc(F)c(Nc4ccc5[nH]ccc5c4)n3)ccc2OCC1 [Example 30, 5-fluoro-N^4-(1H-indol-5-yl)-N^2-(7-methyl-2,3,6,7,8,9-hexahydro-5H-benzo[b][1,4,7]trioxa[10]azacyclododecan-13-yl)pyrimidin-2,4-diamine] | 40 to 79% | 40 to 79% |  | 25 to 39% |  |  | 40 to 79% | 40 to 79% | > 80% | 25 to 39% | > 80% |  |  | 25 to 39% |  |  |
| CC(C)S(=O)(=O)c1ccccc1Nc1nc(Nc2ccc3c(c2)OCCOCCN(C)CCO3)nc2[nH]cnc12 [Example 60, N^6-(2-(isopropylsulfonyl)phenyl)-N^2-(7-methyl-2,3,6,7,8,9-hexahydro-5H-benzo[b][1,4,7]trioxa[10]azacyclododecan-13-yl)-9H-purin-2,6-diamine] | > 80% | 40 to 79% | 40 to 79% | > 80% |  |  | 40 to 79% | 40 to 79% | > 80% | 40 to 79% | > 80% |  | > 80% |  |  |  |
| Cc1nc2c(F)cc(-c3nc(Nc4ccc5c(c4)OCCOCCN(C)CCO5)nc4[nH]ccc34)cc2n1C(C)C [Example 31, N-(4-(4-fluoro-1-isopropyl-2-methyl-1H-benzo[d]imidazol-6-yl)-7H-pyrrolo[2,3-d]pyrimidin-2-yl)-7-methyl-2,3,6,7,8,9-hexahydro-5H-benzo[b][1,4,7]trioxa[10] azacyclododecan-13-amine] | 40 to 79% | 40 to 79% | 40 to 79% | > 80% |  |  | 40 to 79% | 40 to 79% | > 80% | 40 to 79% | > 80% |  |  |  |  | 25 to 39% |

From patent EP4592286A1, “MACROCYCLIC NITROGEN-CONTAINING CROWN ETHER COMPOUND AND USE THEREOF AS PROTEIN KINASE INHIBITOR” (Artivila Biopharma, priority 2022, dated 2024)
